Data reported in article PMC10482975 (Nature Communications, 2023).
Numbering of substitutions follows the chain as printed. Where two headings read alike, the source gives them in different places.

How the values were obtained:
M4 mAChR Y92A = molecular target: T1, M4 mAChR Y92A (Homo sapiens, UniProt P08173, Y92A); test: [3H]-NMS radioligand dissociation binding, M4 mAChR Y92A; parameters: [3H]-NMS binding remaining vs Total Binding, MEAN: unit not given here; details: for [3H]-NMS binding remaining vs Total Binding, MEAN: M4 Y92A mAChR
T1 construct: expressed in transfected cells
T1 sequence (P08173 1-479 Y92A): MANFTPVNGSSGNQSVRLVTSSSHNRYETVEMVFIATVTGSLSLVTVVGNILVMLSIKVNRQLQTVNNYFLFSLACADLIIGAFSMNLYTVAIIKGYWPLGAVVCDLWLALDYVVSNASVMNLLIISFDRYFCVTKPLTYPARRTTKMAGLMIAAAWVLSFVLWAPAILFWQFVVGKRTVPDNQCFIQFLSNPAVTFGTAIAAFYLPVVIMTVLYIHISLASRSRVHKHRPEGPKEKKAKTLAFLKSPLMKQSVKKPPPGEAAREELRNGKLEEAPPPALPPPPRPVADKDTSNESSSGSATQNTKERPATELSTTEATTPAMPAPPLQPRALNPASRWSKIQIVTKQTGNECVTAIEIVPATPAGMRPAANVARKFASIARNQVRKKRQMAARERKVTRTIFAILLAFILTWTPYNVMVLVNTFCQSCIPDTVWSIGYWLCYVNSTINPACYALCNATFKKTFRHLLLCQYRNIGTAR
Protocol: (§1) Flp-In Chinese hamster ovary (CHO) (Thermo Fisher Scientific) cells stably expressing mAChR WTs or mutant constructs were cultured in Dulbecco’s modified Eagle’s medium (DMEM, Invitrogen) containing 5% foetal bovine serum (FBS; ThermoTrace) and […] of hygromycin (Roche) in a humidified incubator (37 °C, 5% CO2). Upon reaching confluence, media was removed, cells were washed with phosphate buffered saline (PBS) and harvested from tissue culture flasks using versene (PBS with 0.2 g EDTA). Cells were then pelleted through centrifugation at 350 × g for three minutes followed by resuspension in DMEM + 5% FBS. Cells were then either plated for an assay or reseeded into a tissue culture flask.

M4 mAChR Q184A = molecular target: T2, M4 mAChR Q184A (Homo sapiens, UniProt P08173, Q184A); test: [3H]-NMS radioligand dissociation binding, M4 mAChR Q184A; parameters: unit not given here
T2 construct: expressed in transfected cells
T2 sequence (P08173 1-479 Q184A): T1 sequence (P08173 1-479 Y92A) with A92Y, Q184A
Protocol: as §1

M4 mAChR W435A = molecular target: T3, M4 mAChR W435A (Homo sapiens, UniProt P08173, W435A); test: [3H]-NMS radioligand dissociation binding, M4 mAChR W435A; parameters: [3H]-NMS binding remaining vs Total Binding, MEAN: unit not given here; details: for [3H]-NMS binding remaining vs Total Binding, MEAN: M4 W435A mAChR
T3 construct: expressed in transfected cells
T3 sequence (P08173 1-479 W435A): T1 sequence (P08173 1-479 Y92A) with A92Y, W435A
Protocol: as §1

M4 mAChR = molecular target: T4, M4 mAChR (Homo sapiens, UniProt P08173)
T4 sequence (P08173 1-479): T1 sequence (P08173 1-479 Y92A) with A92Y

[1] = tested on: M4 mAChR knockout (KO) mice / M1 mAChR KO mice; details: cited from earlier work
[2] = + 10uM LY2033 (Allosteric Ligand), Time 0 min (Total Binding)
[3] = + 10uM LY2033 (Allosteric Ligand), Time 30 min
[4] = + 10uM LY2033 (Allosteric Ligand), Time 60 min
[5] = + 10uM LY2033 (Allosteric Ligand), Time 90 min
[6] = + 10uM LY2033 (Allosteric Ligand), Time 120 min
[7] = + 10uM LY2033 (Allosteric Ligand), Time 180 min
[8] = + 10uM LY2033 (Allosteric Ligand), Time 300 min

## CCCCCCOc1nsnc1C1=CCCN(C)C1 [xanomeline]
M4 mAChR Y92A; +100uM Xano, Time 30 min
  [3H]-NMS binding remaining vs Total Binding, MEAN: 84.6188
M4 mAChR Y92A; +100uM Xano, Time 60 min
  [3H]-NMS binding remaining vs Total Binding, MEAN: 76.9087
M4 mAChR Y92A; +100uM Xano, Time 90 min
  [3H]-NMS binding remaining vs Total Binding, MEAN: 63.0845
M4 mAChR Y92A; +100uM Xano, Time 120 min
  [3H]-NMS binding remaining vs Total Binding, MEAN: 54.6505
M4 mAChR Y92A; +100uM Xano, Time 300 min
  [3H]-NMS binding remaining vs Total Binding, MEAN: 15.7486
M4 mAChR Y92A; M4 mAChR Y92A mutant
  effect on [3H]-NMS dissociation (in words): loss in xanomeline modulation
M4 mAChR Q184A; +100uM Xano, Time 30 min
  [3H]-NMS binding remaining vs Total Binding, MEAN: 83.7482
M4 mAChR Q184A; +100uM Xano, Time 60 min
  [3H]-NMS binding remaining vs Total Binding, MEAN: 84.3012
M4 mAChR Q184A; +100uM Xano, Time 90 min
  [3H]-NMS binding remaining vs Total Binding, MEAN: 69.8323
M4 mAChR Q184A; +100uM Xano, Time 120 min
  [3H]-NMS binding remaining vs Total Binding, MEAN: 76.4651
M4 mAChR Q184A; +100uM Xano, Time 180 min
  [3H]-NMS binding remaining vs Total Binding, MEAN: 50.1077
M4 mAChR Q184A; +100uM Xano, Time 300 min
  [3H]-NMS binding remaining vs Total Binding, MEAN: 18.2224
M4 mAChR W435A; +100uM Xano, Time 30 min
  [3H]-NMS binding remaining vs Total Binding, MEAN: 96.9648
M4 mAChR W435A; +100uM Xano, Time 60 min
  [3H]-NMS binding remaining vs Total Binding, MEAN: 87.005
M4 mAChR W435A; +100uM Xano, Time 90 min
  [3H]-NMS binding remaining vs Total Binding, MEAN: 77.1921
M4 mAChR W435A; +100uM Xano, Time 120 min
  [3H]-NMS binding remaining vs Total Binding, MEAN: 74.9315
M4 mAChR W435A; +100uM Xano, Time 180 min
  [3H]-NMS binding remaining vs Total Binding, MEAN: 64.2361
M4 mAChR W435A; +100uM Xano, Time 300 min
  [3H]-NMS binding remaining vs Total Binding, MEAN: 31.9462
M4 mAChR W435A; M4 mAChR W435A mutant
  effect on [3H]-NMS dissociation (in words): loss in xanomeline modulation
M4 mAChR; 10 µM xanomeline alone
  rebinding of [3H]-NMS (in words): prevented the rebinding
M4 mAChR; 100 µM xanomeline alone
  [3H]-NMS dissociation (in words): slowed to the same extent
[1]; M1 mAChR KO mice
  antipsychotic efficacy: partially reduced
[1]; M4 mAChR knockout (KO) mice
  antipsychotic efficacy: completely abolished

## COc1nc2sc(C(=O)NC3CC3)c(N)c2c(C)c1Cl [LY2033298]
M4 mAChR Y92A; [2]
  [3H]-NMS binding remaining vs Total Binding, MEAN: 100
M4 mAChR Y92A; [3]
  [3H]-NMS binding remaining vs Total Binding, MEAN: 108.824
M4 mAChR Y92A; [4]
  [3H]-NMS binding remaining vs Total Binding, MEAN: 96.2598
M4 mAChR Y92A; [5]
  [3H]-NMS binding remaining vs Total Binding, MEAN: 94.6146
M4 mAChR Y92A; [6]
  [3H]-NMS binding remaining vs Total Binding, MEAN: 83.2371
M4 mAChR Y92A; [7]
  [3H]-NMS binding remaining vs Total Binding, MEAN: 74.311
M4 mAChR Y92A; [8]
  [3H]-NMS binding remaining vs Total Binding, MEAN: 49.3255
M4 mAChR Q184A; [2]
  [3H]-NMS binding remaining vs Total Binding, MEAN: 100
M4 mAChR Q184A; [3]
  [3H]-NMS binding remaining vs Total Binding, MEAN: 89.0052
M4 mAChR Q184A; [4]
  [3H]-NMS binding remaining vs Total Binding, MEAN: 100.674
M4 mAChR Q184A; [5]
  [3H]-NMS binding remaining vs Total Binding, MEAN: 109.408
M4 mAChR Q184A; [6]
  [3H]-NMS binding remaining vs Total Binding, MEAN: 91.4218
M4 mAChR Q184A; [7]
  [3H]-NMS binding remaining vs Total Binding, MEAN: 88.0443
M4 mAChR Q184A; [8]
  [3H]-NMS binding remaining vs Total Binding, MEAN: 76.9832
M4 mAChR W435A; [2]
  [3H]-NMS binding remaining vs Total Binding, MEAN: 100
M4 mAChR W435A; [3]
  [3H]-NMS binding remaining vs Total Binding, MEAN: 87.6204
M4 mAChR W435A; [4]
  [3H]-NMS binding remaining vs Total Binding, MEAN: 83.5904
M4 mAChR W435A; [5]
  [3H]-NMS binding remaining vs Total Binding, MEAN: 79.4133
M4 mAChR W435A; [6]
  [3H]-NMS binding remaining vs Total Binding, MEAN: 78.9331
M4 mAChR W435A; [7]
  [3H]-NMS binding remaining vs Total Binding, MEAN: 67.1451
M4 mAChR W435A; [8]
  [3H]-NMS binding remaining vs Total Binding, MEAN: 50.6666
